Measurements published in patent publication US12180485B2, “Repressible control of gene expression” (TRUSTEES OF BOSTON UNIVERSITY, priority 2020, dated 2024).
Positions count from the first letter of the chain named. Like-named read-outs stand apart in the source and are kept apart here.

How the values were obtained:
[1] = system: mammalian systems; settings: cited from earlier work
[2] = target: CID domains; settings: cited from earlier work; for Kd: ligand / CID dimerization domain, read-out: Dissociation constant (Kd); for Reversibility: reversibility of the ligand-induced dimerization / action
[3] = system: mCherry; assay: Drug inhibited knockdown system (Cas13 OFF switch, dNS3/ANR domains), mCherry expression; type: cell-based; settings: split Cas13d linked to dNS3 and ANR domains
[4] = system: Cre reporter; assay: Caffeine inducible split Cre (CaffVHH), Cre reporter in transfected cells; type: cell-based
[5] = system: mCherry; assay: Split Cas13 (559/560) or WTCas13 driven by inducible promoters (NFkB, CAGA12, AP1), mCherry knockdown; type: cell-based; settings: NFkB promoter with TGFbeta; CAGA12 promoter with TNFalpha; AP1 promoter with PMA
Source text: FIG. 13A-13E is a series of schematics and graphs showing the coupling of split Cas13 (559/560) expression to inducible promoters responsive to endogenous signals. Inducible promoters responsive to endogenous signals drove split Cas13 expression for the construction of AND logic gate. FIG. 13A is a schematic showing the transfection compositions of endogenous signal-responsive promoters (e.g., “short response elements” and “miniP”) driving split Cas13d's. […] FIG. 13E is a series of bar graphs showing that orthogonality among the 3 inducible promoters tested. In FIG. 13B-13D, the left-right order of the bars for each design is the same as the top-down order of the legend for each bar graph, and “NT-gRNA” is non-target gRNA. In FIG. 13E, the left-right order of the bars is the same as the top-down order of the legend for each bar graph.

[6] = target: NS3a/danoprevir complex (Hepatitis C virus genotype 1a, UniProt P27958, T1100M/T1173A); settings: cited from earlier work
[7] = target: grazoprevir/NS3a complex (Hepatitis C virus genotype 1a, UniProt P27958, T1100M/T1173A); settings: cited from earlier work
[8] = target: asunaprevir-bound NS3a (Hepatitis C virus genotype 1a, UniProt P27958, T1100M/T1173A); settings: cited from earlier work
[9] = system: mCherry; assay: mCherry knockdown by inducible split RfxCas13d (ON switch) in transfected HEK 293 FT cells, flow cytometry; type: cell-based
[10] = system: mCherry; assay: mCherry knockdown by LwaCas13a and PspCas13b, WT and GIB CID split sites; type: cell-based
Source text: Cas13b was able to facilitate over 70% mCherry knockdown. […] Two additional mCherry-targeting crRNA sequences for LwaCas13a were identified; they both offered moderate mCherry knockdown (around 50% in populations highly expressing Cas13a).
With the LwaCas13a and PspCas13b specific mCherry-targeting crRNAs, 12 split sites were screened in PspCas13b, and 11 split sites were screened in LwaCas13a sequences.
Therefore, it is contemplated herein that the knockdown efficiency of split LwaCas13a can be brought up by optimized crRNA design. Moreover, without wishing to be bound by theory, with a more efficient crRNA, GIB-induced knockdown efficiency by splits 397/398, 488/489, 605/606, 786/787, or 826/827 could also be enhanced.

[11] = toxicity in mammalian systems at working concentration

Gibberellin
Toxicity* [1, 11]: yes | Kd [2]: 1000 nM | Reversibility [2]: yes

CC1=CC(=O)CC(C)(C)[C@@]1(O)/C=C/C(C)=C\C(=O)O [Abscisic acid]
Toxicity* [1]: no | Kd [2]: 20 nM | Reversibility [2]: yes

C=C[C@@H]1C[C@]1(NC(=O)[C@@H]1C[C@@H]2CN1C(=O)[C@H](C(C)(C)C)NC(=O)O[C@@H]1C[C@H]1CCCCCc1nc3ccc(OC)cc3nc1O2)C(=O)NS(=O)(=O)C1CC1.O [Grazoprevir, reference compound]
Toxicity* [1, 11]: no | Kd [2]: 0.02 nM | Reversibility [2]: yes | inhibition of constitutive knockdown activity of the OFF switch [3]: able to inhibit the constitutive knockdown activity

CO[C@H]1C[C@@H]2CC[C@@H](C)[C@@](O)(O2)C(=O)C(=O)N2CCCC[C@H]2C(=O)O[C@H]([C@H](C)C[C@@H]2CC[C@@H](O)[C@H](OC)C2)CC(=O)[C@H](C)/C=C(\C)[C@@H](O)[C@@H](OC)C(=O)[C@H](C)C[C@H](C)/C=C/C=C/C=C/1C [Rapamycin]
Toxicity* [1, 11]: no

CC(C)(C)OC(=O)N[C@H]1CCCCC/C=C\[C@@H]2C[C@@]2(C(=O)NS(=O)(=O)C2CC2)NC(=O)[C@@H]2C[C@@H](OC(=O)N3Cc4cccc(F)c4C3)CN2C1=O [Danoprevir]
inhibition of constitutive knockdown activity of the OFF switch [3]: able to inhibit the constitutive knockdown activity

Cn1c(=O)c2c(ncn2C)n(C)c1=O [caffeine, reference compound]
Toxicity* [1, 11]: no | Kd [2]: 1200 nM | Reversibility [2]: yes | caffeine concentration able to turn on Cre activity and generate reporter expression ([4]; 48 hours): 0.1 µM | caffeine concentration not sufficient to induce recombination ([4]; FIG. 1C): 0.01 µM | caffeine concentration over which recombination efficiency did not increase significantly ([4]; FIG. 1C): over 50 uM

TNFalpha
mCherry knockdown by split Cas13d or WTCas13 expressed from inducible promoter [5]: induced mCherry knockdown

CC/C(=C(\c1ccccc1)c1ccc(OCCN(C)C)cc1)c1ccccc1 [Tamoxifen]
Toxicity* [1, 11]: no | Reversibility [2]: hardly

B1: D5: reader domain, SEQ ID NO: 166 (protein)
chain: SSDEEEARELIERAKEAAERAQEAAERTGDPRVRELARELKRLAQEAAEEVKRDPSSSDVNEALKLIVEAIEAAVDALEAAERTGDPEVRELARELVRLAVEAAEEVQRNPSSSDVNEALLTIVIAIEAAVNALEAAERTGDPEVRELARELVRLAVEAAEEVQRNPSSREVNIALWKIVLAIQEAVESLREAEESGDPEKREKARERVREAVERAEEVQRDPSGWLNH
binding of NS3 in the presence of danoprevir [6]: moderate binding | binding of NS3 in the presence of grazoprevir [7]: moderate binding | binding of NS3 in the presence of asunaprevir [8]: some binding

B2: DNCR1: danoprevir/NS3 complex reader, SEQ ID NO: 167 (protein)
chain: B1 chain with T122S, N132H, N173E, I174H, W177M, Q184Y, V187E
binding of NS3 in the presence of danoprevir [6]: high binding | binding of NS3 in the presence of grazoprevir [7]: minimal binding | binding of NS3 in the presence of asunaprevir [8]: minimal binding

B3: G3: reader domain, SEQ ID NO: 168 (protein)
chain: DIEKLCKKAEEEAKEAQEKADELRQRHPDSQAAEDAEDLANEAEAAVLAACSLAQEHPNADIAKLCIKAASEAAEAASKAAELAQRHPDSQAARDAIKLASQAARAVILAIMLAAENPNADIAKLCIKAASEAAEAASKAAELAQRHPDSQAARDAIKLASQAAEAVERAIWLAAENPNADIAKKCIKAASEAAEEASKAAEEAQRHPDSQKARDEIKEASQKAEEVKERCKS
binding of NS3 in the presence of danoprevir [6]: no binding | binding of NS3 in the presence of grazoprevir [7]: moderate binding | binding of NS3 in the presence of asunaprevir [8]: some binding

B4: 507/508: RfxCas13d split pair at 507/508 fused to CID or dNS3/ANR domains (protein)
chain 1: IEKKKSFAKGMGVKSTLVSGSKVYMTTFAEGSDARLEKIVEGDSIRSVNEGEAFSAEMADKNAGYKIGNAKFSHPKGYAVVANNPLYTGPVQQDMLGLKETLEKRYFGESADGNDNICIQVIHNILDIEKILAEYITNAAYAVNNISGLDKDIIGFGKFSTVYTYDEFKDPEHHRAAFNNNDKLINAIKAQYDEFDNFLDNPRLGYFGQAFFSKEGRNYIINYGNECYDILALLSGLRHWVVHNNEEESRISRTWLYNLDKNLDNEYISTLNYLYDRITNELTNSFSKNSAANVNYIAETLGINPAEFAEQYFRFSIMKEQKNLGFNITKLREVMLDRKDMSEIRKNHKVFDSIRTKVYTMMDFVIYRYYIEEDAKVAAANKSLPDNEKSLSEKDIFVINLRGSFNDDQKDALYYDEANRIWRKLENIMHNIKEFRGNKTREYKKKDAPRLPRILPAGRDVSAFSKLMYALTMFLDGKEINDLLTTLINKFDNIQSFLKVMPLIGVN
chain 2: AKFVEEYAFFKDSAKIADELRLIKSFARMGEPIADARRAMYIDAIRILGTNLSYDELKALADTFSLDENGNKLKKGKHGMRNFIINNVISNKRFHYLIRYGDPAHLHEIAKNEAVVKFVLGRIADIQKKQGQNGKNQIDRYYETCIGKDKGKSVSEKVDALTKIITGMNYDQFDKKRSVIEDTGRENAEREKFKKIISLYLTVIYHILKNIVNINARYVIGFHCVERDAQLYKEKGYDINLKKLEEKGFSSVTKLCAGIDETAPDKRKDVEKEMAERAKESIDSLESANPKLYANYIKYSDEKKAEEFTRQINREKAKTALNAYLRNTKWNVIIREDLLRIDNKTCTLFRNKAVHLEVARYVHAYINDIAEVNSYFQLYHYIMQRIIMNERYEKSSGKVSEYFDAVNDEKKYNDRLLKLLCVPFGYCIPRFKNLSIEALFDRNEAAKFDKEKKKVSGNS
modifications: fused CID or dNS3/ANR domains
notes: RfxCas13d split pair at 507/508 fused to CID or dNS3/ANR domains
performance of reversed CID orientation versus original orientation ([9]; GIB: N ss-GAI/GID-ss C, ABA: N ss-PYL/ABI-ss C): stronger inducibility and weaker leakiness | knockdown across the various CID systems ([9]; split pairs coupled with CID domains, with inducer): consistently strong drug-induced knockdown

B5: LwaCas13a: Cas13a from Leptotrichia wadei (protein, listed as Leptotrichia wadei)
chain: MKVTKVDGISHKKYIEEGKLVKSTSEENRTSERLSELLSIRLDIYIKNPDNASEEENRIRRENLKKFFSNKVLHLKDSVLYLKNRKEKNAVQDKNYSEEDISEYDLKNKNSFSVLKKILLNEDVNSEELEIFRKDVEAKLNKINSLKYSFEENKANYQKINENNVEKVGGKSKRNIIYDYYRESAKRNDYINNVQEAFDKLYKKEDIEKLFFLIENSKKHEKYKIREYYHKIIGRKNDKENFAKIIYEEIQNVNNIKELIEKIPDMSELKKSQVFYKYYLDKEELNDKNIKYAFCHFVEIEMSQLLKNYVYKRLSNISNDKIKRIFEYQNLKKLIENKLLNKLDTYVRNCGKYNYYLQVGEIATSDFIARNRQNEAFLRNIIGVSSVAYFSLRNILETENENGITGRMRGKTVKNNKGEEKYVSGEVDKIYNENKQNEVKENLKMFYSYDFNMDNKNEIEDFFANIDEAISSIRHGIVHFNLELEGKDIFAFKNIAPSEISKKMFQNEINEKKLKLKIFKQLNSANVFNYYEKDVIIKYLKNTKFNFVNKNIPFVPSFTKLYNKIEDLRNTLKFFWSVPKDKEEKDAQIYLLKNIYYGEFLNKFVKNSKVFFKITNEVIKINKQRNQKTGHYKYQKFENIEKTVPVEYLAIIQSREMINNQDKEEKNTYIDFIQQIFLKGFIDYLNKNNLKYIESNNNNDNNDIFSKIKIKKDNKEKYDKILKNYEKHNRNKEIPHEINEFVREIKLGKILKYTENLNMFYLILKLLNHKELTNLKGSLEKYQSANKEETFSDELELINLLNLDNNRVTEDFELEANEIGKFLDFNENKIKDRKELKKFDTNKIYFDGENIIKHRAFYNIKKYGMLNLLEKIADKAKYKISLKELKEYSNKKNEIEKNYTMQQNLHRKYARPKKDEKFNDEDYKEYEKAIGNIQKYTHLKNKVEFNELNLLQGLLLKILHRLVGYTSIWERDLRFRLKGEFPENHYIEEIFNFDNSKNVKYKSGQIVEKYINFYKELYKDNVEKRSIYSDKKVKKLKQEKKDLYIRNYIAHFNYIPHAEISLLEVLENLRKLLSYDRKLKNAIMKSIVDILKEYGFVATFKIGADKKIEIQTLESEKIVHLKNLKKKKLMTDRNSEELCELVKVMFEYKALE
mCherry knockdown compared to no crRNA control group ([10]; position-matched LwaCas13a crRNA): did not achieve mCh knockdown | mCherry knockdown ([10]; two additional mCherry-targeting crRNA sequences, populations highly expressing Cas13a): around 50%

B6: single CaffVHH: single CaffVHH version of split Cre 270/271 (protein)
VHH: EVQLQASGGGLVQAGGSLRLSCTASGRTGTIYSMAWFRQAPGKEREFLATVGWSSGITYYMDSVKGRFTISRDNAKNSAYLQMNSLKPEDTAVYYCTATRAYSVGYDYWGQGTQVTVSH
caffeine concentration achieving maximum recombination efficiency ([4]; dose response, split Cre 270/271): 500 µM
